Source: paper PMC9151520 (Archives of Toxicology, 2022)
“And” between values parts separate entries of the source, which are not always exact repeats. Equal values may be shown once. Read-outs that look alike come from different tables or passages of the source.

Legend:
[1] = tested on: p53 signaling (p53RE-bla HCT-116 cells); assay: cells; type: cell-based
[2] = tested on: p53 signaling (p53RE-bla HCT-116 cells); assay: cells; type: cell-based; remark: listed apart in the source
[3] = tested on: p53 signaling (p53RE-bla HCT-116 cells); assay: cells; details: Homo sapiens
[4] = tested on: p53 signaling (p53RE-bla HCT-116 cells); assay: cells; type: cell-based; design: efficacy: unit not given here; details: for EC50 / Emax: Homo sapiens; for EC50: HCT-116; for Emax: HCT-116, read-out: efficacy
[5] = rat
in vitro = details: male, Sprague Dawley, rat, microsomes, pH 7.4
[6] = tested on: p53 signaling (p53RE-bla HCT-116 cells)
[7] = tested on: p53 signaling (p53RE-bla HCT-116 cells); remark: listed apart in the source
[8] = tested on: p53 signaling (p53RE-bla HCT-116 cells); assay: cells; details: Homo sapiens; remark: listed apart in the source

## Cc1cccc2c1cc1ccc3cccc4ccc2c1c34 [7-Methylbenzo(a)pyrene]
[1]; Homo sapiens, HCT-116, 0.5 h
  EC50: 32.9 µM
[2]
  p53 activation Efficacy, No MS: 64.7403%
[2]; Homo sapiens, HCT-116, read-out: p53 activation Efficacy, No MS
  Emax: 59.2%
p53RE-bla HCT-116 cells
  Viability EC50, HLM: inactive
  Viability EC50, No MS: inactive
  Viability EC50, RLM: inactive
  Viability Efficacy, HLM: inactive
  Viability Efficacy, No MS: inactive
  Viability Efficacy, RLM: inactive
[3]; HCT-116
  EC50: 34.3 µM
[4]
  EC50: 27.5 µM
[5]
  Depletion after 16 h of incubation with cells: 52.01 ± 27.41%

## Cc1nc(N(C)C)nc(OC(=O)N(C)C)c1C [Pirimicarb]
In vitro
  half-life: 11.7 ± 0.52 min

## CCOP(=O)(SC(C)CC)N1CCSC1=O (stereo not shown) [Fosthiazate]
In vitro
  half-life: 15.2 ± 1.93 min

## Cc1cc(=O)oc2cc(O)ccc12 [4-Methylumbelliferone]
[6]
  EC50, p53 activation, cherry pick confirmation: inactive
  Efficacy, p53 activation, cherry pick confirmation: inactive
[1]
  EC50: Inactive
In vitro
  half-life: 19.1 min
[2]
  EC50, p53 activation, primary screening: inactive
  Efficacy, p53 activation, primary screening: inactive
[2]; Homo sapiens, HCT-116, read-out: EC50, p53 activation, cherry pick confirmation
  EC50: 18.2 µM
[2]; Homo sapiens, HCT-116, read-out: Efficacy, p53 activation, cherry pick confirmation
  Emax: 30%
p53RE-bla HCT-116 cells
  EC50, viability, cherry pick confirmation: inactive
  EC50, viability, primary screening: inactive
  Efficacy, viability, cherry pick confirmation: inactive
  Efficacy, viability, primary screening: inactive
[3]; HCT-116
  EC50: 25.2 µM
[3]; HCT-116, read-out: EC50, p53 activation, cherry pick confirmation
  EC50: 25.9 µM
[3]; HCT-116, read-out: Efficacy, p53 activation, cherry pick confirmation
  Emax: 89.9%
[3]; HCT-116, read-out: efficacy
  Emax: 99.5%
[4]
  EC50: 24.2 µM
  Emax: 114%
[5]
  Depletion after 16 h of incubation with cells: 46.53 ± 5.89%

## CCOP(=O)(NC(C)C)Oc1ccc(SC)c(C)c1 (stereo not shown) [Fenamiphos]
[6]
  p53 activation EC50, HLM: inactive
[1]
  efficacy: 0.37 ± 0.15 ( 33.54 ± 3.04 ) %
[1]; Homo sapiens, HCT-116, 0.5 h
  EC50: 0.37 µM
[2]
  p53 activation EC50, No MS: inactive
  p53 activation Efficacy, No MS: inactive
p53RE-bla HCT-116 cells
  Viability EC50, HLM: inactive
  Viability EC50, No MS: inactive
  Viability EC50, RLM: inactive
  Viability Efficacy, HLM: inactive
  Viability Efficacy, No MS: inactive
  Viability Efficacy, RLM: inactive
[3]; HCT-116
  EC50: 1.5 µM
[3]; HCT-116, read-out: p53 activation EC50, RLM
  EC50: 1.55 µM
[7]; read-out: p53 activation EC50, RLM
  EC50: 0.958 µM
[4]
  efficacy: 1.34 ± 0.33 ( 75.12 ± 11.54 ) %
  EC50: 1.34 µM
[5]
  Depletion after 16 h of incubation with cells: 99.41 ± 0.07%
[8]; HCT-116, read-out: p53 activation EC50, HLM
  EC50: 1.49 µM

## COc1c2ccoc2cc2oc(=O)ccc12 [5-Methoxypsoralen]
[6]
  p53 activation EC50, cherry pick confirmation: inactive
  p53 activation EC50, primary screening: inactive
  p53 activation efficacy, cherry pick confirmation: inactive
  p53 activation efficacy, primary screening: inactive
[1]
  EC50: Inactive
In vitro
  half-life: 21.1 ± 3.72 min
[2]
  p53 activation EC50, cherry pick confirmation: inactive
  p53 activation EC50, primary screening: inactive
  p53 activation efficacy, cherry pick confirmation: inactive
  p53 activation efficacy, primary screening: inactive
p53RE-bla HCT-116 cells
  Viability EC50, cherry pick confirmation: inactive
  Viability EC50, primary screening: inactive
  Viability efficacy, cherry pick confirmation: inactive
  Viability efficacy, primary screening: inactive
[3]; HCT-116
  EC50: 16.4 µM
[3]; HCT-116, read-out: efficacy
  Emax: 72.3%
[3]; HCT-116, read-out: p53 activation EC50, cherry pick confirmation
  EC50: 9.45 µM
[3]; HCT-116, read-out: p53 activation EC50, primary screening
  EC50: 20.9 µM
[3]; HCT-116, read-out: p53 activation efficacy, cherry pick confirmation
  Emax: 62.5%
[3]; HCT-116, read-out: p53 activation efficacy, primary screening
  Emax: 81.3%
[4]
  EC50: 13.2 µM
  Emax: 75%
[5]
  Depletion after 16 h of incubation with cells: 45.7 ± 3.67%

## CCOP(=S)(OCC)SCSCC [Phorate]
In vitro
  half-life: 104 ± 22.4 min

## COP(=S)(OC)SCn1nnc2ccccc2c1=O [Azinphos-methyl]
[6]
  p53 activation EC50: inactive
[1]
  efficacy: 6.6 ± 0.91 ( 57.05 ± 12.27 ) %
[1]; Homo sapiens, HCT-116, 0.5 h
  EC50: 6.6 µM
[2]
  p53 activation EC50: inactive
  p53 activation efficacy: inactive
p53RE-bla HCT-116 cells
  Viability EC50: inactive
  Viability efficacy: inactive
[3]; HCT-116
  EC50: 11.6 µM
[7]
  p53 activation efficacy: 77.2775 and 58.65
[4]
  efficacy: 7.29 ± 2.15 ( 104.64 ± 29.38 ) %
  EC50: 7.29 µM
[5]
  Depletion after 16 h of incubation with cells: 94.04 ± 0.16%
[8]; HCT-116, read-out: p53 activation EC50
  EC50: 14.9 µM
